Source: paper PMC9182146, “BSA Interaction, Molecular Docking, and Antibacterial Activity of Zinc(II) Complexes Containing the Sterically Demanding Biomimetic N3S2 Ligand: The Effect of Structure Flexibility” (Molecules, 2022)
Like-named read-outs stand apart in the source and are kept apart here.

Key:
[1] = molecular target: T1, BSA (Bos taurus, UniProt P02769); assay: Fluorescence quenching of BSA (Stern–Volmer); conditions: for KSV (called binding constants in conclusions) / Kq: temperature not stated
[2] = Dynamic light scattering size distribution of self-assembled adducts in water; assay type: physicochemical; conditions: DLS, room temperature
[3] = molecular target: T1, BSA; conditions: for ΔHº / ΔSº: 288–308 K
Experimental: The association constants and number of binding sites between the zinc complexes and BSA were calculated according to Equation (4). (4) logF0−F/F=logKA+nlogQ
In general, ΔGº reflects the spontaneity of the reaction, whereas ΔHº and ΔSº are the main quantities for determining the binding force. The thermodynamic parameters of ΔHº and ΔSº were calculated using Equation (5), and the Gibbs free energy was estimated from Equation (6). lnKA = −ΔHº/RT + ΔSº/R(5) ΔGº = ΔHº − TΔSº = −RT ln KA(6)

[4] = molecular target: T1, BSA; assay: Cyclic voltammetry of BSA with zinc complexes; conditions: for BSA cathodic peak potential after addition of complex: BSA alone approximately −0.39 V, water, Ag/AgCl reference; for kR/kO binding constants: reduced over oxidized form
Experimental: Cyclic voltammograms of BSA in water in the presence and absence of zinc complexes were used for a voltammetric study.
The optical absorptions were performed using a 1.0 cm quartz cell on a JASCO spectrophotometer (V-780). Fluorescence measurements were carried out using the JASCO spectrofluorometer (FP-8300 model). The excitation wavelength was set at 280 nm, and the wavelength of the emission was set to 285–600 nm. Picosecond fluorescence decay profiles were measured using the FluoTime 300 (Pico Quant, Berlin, Germany) by the single-photon counting method. Lifetimes were evaluated using software supplied with the instrument. The time-resolved fluorescence instrumentation was the same as for steady-state experiments. Cyclic voltammograms were carried out on a Gamry setup with a carbon working electrode and a platinum wire as a counter electrode. A silver–silver chloride (Ag/AgCl) electrode was used as a reference electrode. All tests were carried out in oxygen-free solutions, and sodium sulfate was used as an electrolyte support. Dynamic light scattering (DLS) was used to determine the distribution profile of the particle size in the solution.

[5] = test system: Pseudomonas aeruginosa; assay: MIC and MBC antibacterial test; assay type: cell-based; conditions: 30 °C; for MIC: 24 h
Experimental: (§1) All complexes were tested for antibacterial activity against both […] bacteria. The antibacterial function of complexes, represented as the diameter of the growth-inhibition region in millimeters, is shown in Figure 8. The minimum inhibitory concentration (MIC) and minimum bactericidal concentration (MBC) of complexes needed to inhibit bacterial growth are presented in Table 4. The MBC is identified by the determination of the lowest concentration of antibacterial agents that reduces the viability of the initial bacterial inoculum by a predetermined reduction of 99.9%. The value agreed on in two or more occasions was adopted as the MIC or MBC strain. Chloramphenicol was used for control purposes. From the inhibition zone, as well as the MIC and MBC data, one can conclude the following: Firstly, both complexes were active, but the activity was less than that for the normal drug (chloramphenicol).
(§2) The synthesized complexes were tested against both […] bacteria for antibacterial activity. The bacteria were incubated by shaking in the thermostat at 30 °C overnight. At this stage, a loop of each culture was placed in 10 mL of 10-fold diluted broth, and the test bacteria cultures containing 10^5 mL^−1 cells were used for antimicrobial testing. […] MIC and MBC as recommended by the NCCLS (National Committee for Clinical Laboratory Standards, Albany, NY, USA). After 24 h of incubation, the MIC was read at 30 °C equivalent to the concentration of the tube without visible growth to measure the effect of decreased antibiotic/antiseptic concentrations over a defined period of time on the inhibition of microbial population growth. These assessments may be quite useful during the R&D phase of the product to determine the appropriate concentrations required in the final product, since the concentration of the drug required to produce the effect is normally several hundreds to thousands of times lower than the concentration found in the completed dosage form.

[6] = test system: Enterococcus; assay: MIC and MBC antibacterial test; assay type: cell-based; conditions: 30 °C; for MIC: 24 h
Experimental: as §1, §2

[7] = test system: Staphylococcus aureus; assay: MIC and MBC antibacterial test; assay type: cell-based; conditions: 30 °C; for MIC: 24 h
Experimental: as §1, §2

[8] = test system: Escherichia coli; assay: MIC and MBC antibacterial test; assay type: cell-based; conditions: 30 °C
Experimental: as §1, §2

[9] = molecular target: T1, BSA; conditions: T = 298 K
From the text: The Förster resonance energy transfer (FRET) mechanism allows the excitation energy to be passed from the donor to the acceptor without photon emission from the former molecular system. According to the FRET principle, the rate of energy transfer depends on the distance between the donor and the acceptor, the orientation of the donor and the acceptor dipoles, and the degree of overlap between the donor emission spectrum and the acceptor absorption spectrum. Energy transfer efficiency (E) can be used to evaluate the distance (r) between zinc complexes (acceptor) and BSA (donor) in protein using Equation (8), (8) E=1−F/F0=R06/R06+r^6 where F and F0 are the fluorescence intensity of BSA in the presence and absence of the acceptor, respectively, r is the distance between the acceptor and donor, R0 is the critical distance for 50% energy transfer and can be calculated using Equation (9), (9) R06=8.8×10^−25K^2N^−4∅J where the spatial orientation factor of the dipole K^2 = 2/3, the refractive index of the medium (water) N = 1.333, and the fluorescence quantum yield of the donor BSA ∅ = 0.15 [10, 38]. The spectral overlap integral (J), calculated from the overlap of the acceptor UV absorption spectra with the donor fluorescence emission spectra, is given using Equation (10). (10) J=∫0∞Fλε λλ^4dλ/∫0∞Fλdλ

T1 sequence (P02769 25-607): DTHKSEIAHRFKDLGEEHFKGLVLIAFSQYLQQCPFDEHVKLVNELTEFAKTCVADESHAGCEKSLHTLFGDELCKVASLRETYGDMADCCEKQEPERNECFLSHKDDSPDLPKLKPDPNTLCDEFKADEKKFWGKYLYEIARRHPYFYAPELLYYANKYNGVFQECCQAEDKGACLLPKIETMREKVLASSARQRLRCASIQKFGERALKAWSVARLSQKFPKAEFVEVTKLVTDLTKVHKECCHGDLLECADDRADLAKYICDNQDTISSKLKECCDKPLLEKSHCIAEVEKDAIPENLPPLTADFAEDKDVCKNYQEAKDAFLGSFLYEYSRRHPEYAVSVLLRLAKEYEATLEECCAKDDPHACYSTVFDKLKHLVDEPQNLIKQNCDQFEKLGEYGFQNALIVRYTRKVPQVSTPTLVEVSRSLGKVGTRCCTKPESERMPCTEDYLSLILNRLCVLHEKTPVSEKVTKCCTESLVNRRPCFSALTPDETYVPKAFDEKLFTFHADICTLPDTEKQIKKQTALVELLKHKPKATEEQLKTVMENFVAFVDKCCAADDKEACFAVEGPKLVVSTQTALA

| Compound | Kq (quenching rate constant) ([1]; T = 288 K) | Ksv (Stern–Volmer quenching constant) ([1]; T = 288 K) | Kq (quenching rate constant) ([1]; T = 298 K) | Ksv (Stern–Volmer quenching constant) ([1]; T = 298 K) | Kq (quenching rate constant) ([1]; T = 318 K) | Ksv (Stern–Volmer quenching constant) ([1]; T = 318 K) | KSV (called binding constants in conclusions) [1] [M⁻¹] | Kq [1] [M⁻¹ s⁻¹] | mean size of self-assembled adduct with BSA [2] [nm] | ΔHº [3] [kcal/mol] | ΔSº [3] [J mol^−1 K^−1] | KA (association constant) ([3]; T = 288 K) | n (number of binding sites) ([3]; T = 288 K) | ΔGº ([3]; T = 288 K) [kcal/mol] | KA (association constant) ([3]; T = 298 K) | n (number of binding sites) ([3]; T = 298 K) | ΔGº ([3]; T = 298 K) [kcal/mol] | KA (association constant) ([3]; T = 308 K) | n (number of binding sites) ([3]; T = 308 K) | ΔGº ([3]; T = 308 K) [kcal/mol] | also measured |
| --- | --- | --- | --- | --- | --- | --- | --- | --- | --- | --- | --- | --- | --- | --- | --- | --- | --- | --- | --- | --- | --- |
| CC(=Nc1cc(C(C)(C)C)cc(C(C)(C)C)c1[S-])c1cccc(C(C)=Nc2cc(C(C)(C)C)cc(C(C)(C)C)c2[S-])n1.[Zn+2] [DBZ, [Zn(py^tBuN2Me2S2)]] | 4.15 10^14 M^−1 s^−1 | 19.0 10^5 M^−1 | 5.40 10^14 M^−1 s^−1 | 24.7 10^5 M^−1 | 5.97 10^14 M^−1 s^−1 | 27.3 10^5 M^−1 | 2.47e+06 | 5.4e+14 | 110 | 10 ± 2.39 | 261 ± 35 | 9.9 10^5 M^−1 | 1.12 | -7.93 ± 0.019 | 22.8 10^5 M^−1 | 1.32 | -8.56 ± 0.096 | 30.7 10^5 M^−1 | 1.45 | -9.18 ± 0.19 | DBZ binds to BSA more than DBZH4 ([1]; ratio of KSV, DBZ over DBZH4): ~30 fold; DBZ binds stronger than DBZH4 ([1]; ratio of binding constants, conclusions): about 35 times; n (number of binding sites) ([3]; all temperatures): ~1; BSA cathodic peak potential after addition of complex [4]: −0.55 V; kR/kO binding constants [4]: 0.43; MBC [5]: 25.0 µg/mL; MIC [5]: 12.5 µg/mL; MBC [6]: 50.0 µg/mL; MIC [6]: 25.0 µg/mL; MBC [7]: 25.0 µg/mL; MIC [7]: 12.5 µg/mL; MBC [8]: 50.0 µg/mL; MIC ([8]; 24 h): 25.0 µg/mL; J (spectral overlap integral) [9]: 9.0 10^−13 L mol^−1 cm^3; R0 (critical distance for 50% energy transfer) [9]: 2.51 nm; r (distance between acceptor and donor) [9]: 3.21 nm; ∫F donor λ Δλ [9]: 79.6 |
| CC(Nc1cc(C(C)(C)C)cc(C(C)(C)C)c1[S-])c1cccc(C(C)Nc2cc(C(C)(C)C)cc(C(C)(C)C)c2[S-])n1.[Zn+2] (centres unmarked) [DBZH4, [Zn(py^tBuN2H4Me2S2)]] | 0.150 10^14 M^−1 s^−1 | 0.69 10^5 M^−1 | 0.153 10^14 M^−1 s^−1 | 0.70 10^5 M^−1 | 0.155 10^14 M^−1 s^−1 | 0.71 10^5 M^−1 | 70000 | 1.5e+13 | 339 | 15.5 ± 0.48 | 304 ± 6 | 0.13 10^5 M^−1 | 1.22 | -5.4 ± 0.072 | 0.31 10^5 M^−1 | 1.40 | -6.12 ± 0.048 | 0.76 10^5 M^−1 | 1.42 | -6.84 ± 0.048 | size range of self-assembled adduct with BSA [2]: 100–1000 nm; n (number of binding sites) ([3]; all temperatures): ~1; BSA cathodic peak potential after addition of complex [4]: −0.57 V; kR/kO binding constants [4]: 0.48; MBC [5]: 30.0 µg/mL; MIC [5]: 15.0 µg/mL; MBC [6]: 60.0 µg/mL; MIC [6]: 30.0 µg/mL; MBC [7]: 30.0 µg/mL; MIC [7]: 15.0 µg/mL; J (spectral overlap integral) [9]: 5.4 10^−13 L mol^−1 cm^3; R0 (critical distance for 50% energy transfer) [9]: 2.31 nm; r (distance between acceptor and donor) [9]: 3.67 nm; ∫F donor λ Δλ [9]: 90.0 |
